# Data as given in patent US12441703B2, “Carboxamides as modulators of sodium channels” (VERTEX PHARMACEUTICALS INCORPORATED, priority 2019, dated 2025).
# Biological target: human NaV 1.8 (Homo sapiens, UniProt Q9Y5Y9)
# Assay: E-VIPR assay for detecting and measuring NaV inhibition properties
# Format: cell-based
# Details: E-VIPR assay conducted in the presence of human serum; HEK cells expressing truncated human NaV 1.8; read-out: IC50
# Outline: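 HEK cells with truncated human NaV1.8 plus KIR2.1 BacMam, hexyl dye loaded 20 min, compound 30 min at room temperature, 11-point 3-fold series […], 0.625% DMSO, with or without human serum. E-VIPR biphasic stimulation at 10 Hz for 10 s; membrane-potential response read as normalized coumarin/oxonol ratio.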
# human NaV 1.8, sequence (Q9Y5Y9 whole entry, looked up): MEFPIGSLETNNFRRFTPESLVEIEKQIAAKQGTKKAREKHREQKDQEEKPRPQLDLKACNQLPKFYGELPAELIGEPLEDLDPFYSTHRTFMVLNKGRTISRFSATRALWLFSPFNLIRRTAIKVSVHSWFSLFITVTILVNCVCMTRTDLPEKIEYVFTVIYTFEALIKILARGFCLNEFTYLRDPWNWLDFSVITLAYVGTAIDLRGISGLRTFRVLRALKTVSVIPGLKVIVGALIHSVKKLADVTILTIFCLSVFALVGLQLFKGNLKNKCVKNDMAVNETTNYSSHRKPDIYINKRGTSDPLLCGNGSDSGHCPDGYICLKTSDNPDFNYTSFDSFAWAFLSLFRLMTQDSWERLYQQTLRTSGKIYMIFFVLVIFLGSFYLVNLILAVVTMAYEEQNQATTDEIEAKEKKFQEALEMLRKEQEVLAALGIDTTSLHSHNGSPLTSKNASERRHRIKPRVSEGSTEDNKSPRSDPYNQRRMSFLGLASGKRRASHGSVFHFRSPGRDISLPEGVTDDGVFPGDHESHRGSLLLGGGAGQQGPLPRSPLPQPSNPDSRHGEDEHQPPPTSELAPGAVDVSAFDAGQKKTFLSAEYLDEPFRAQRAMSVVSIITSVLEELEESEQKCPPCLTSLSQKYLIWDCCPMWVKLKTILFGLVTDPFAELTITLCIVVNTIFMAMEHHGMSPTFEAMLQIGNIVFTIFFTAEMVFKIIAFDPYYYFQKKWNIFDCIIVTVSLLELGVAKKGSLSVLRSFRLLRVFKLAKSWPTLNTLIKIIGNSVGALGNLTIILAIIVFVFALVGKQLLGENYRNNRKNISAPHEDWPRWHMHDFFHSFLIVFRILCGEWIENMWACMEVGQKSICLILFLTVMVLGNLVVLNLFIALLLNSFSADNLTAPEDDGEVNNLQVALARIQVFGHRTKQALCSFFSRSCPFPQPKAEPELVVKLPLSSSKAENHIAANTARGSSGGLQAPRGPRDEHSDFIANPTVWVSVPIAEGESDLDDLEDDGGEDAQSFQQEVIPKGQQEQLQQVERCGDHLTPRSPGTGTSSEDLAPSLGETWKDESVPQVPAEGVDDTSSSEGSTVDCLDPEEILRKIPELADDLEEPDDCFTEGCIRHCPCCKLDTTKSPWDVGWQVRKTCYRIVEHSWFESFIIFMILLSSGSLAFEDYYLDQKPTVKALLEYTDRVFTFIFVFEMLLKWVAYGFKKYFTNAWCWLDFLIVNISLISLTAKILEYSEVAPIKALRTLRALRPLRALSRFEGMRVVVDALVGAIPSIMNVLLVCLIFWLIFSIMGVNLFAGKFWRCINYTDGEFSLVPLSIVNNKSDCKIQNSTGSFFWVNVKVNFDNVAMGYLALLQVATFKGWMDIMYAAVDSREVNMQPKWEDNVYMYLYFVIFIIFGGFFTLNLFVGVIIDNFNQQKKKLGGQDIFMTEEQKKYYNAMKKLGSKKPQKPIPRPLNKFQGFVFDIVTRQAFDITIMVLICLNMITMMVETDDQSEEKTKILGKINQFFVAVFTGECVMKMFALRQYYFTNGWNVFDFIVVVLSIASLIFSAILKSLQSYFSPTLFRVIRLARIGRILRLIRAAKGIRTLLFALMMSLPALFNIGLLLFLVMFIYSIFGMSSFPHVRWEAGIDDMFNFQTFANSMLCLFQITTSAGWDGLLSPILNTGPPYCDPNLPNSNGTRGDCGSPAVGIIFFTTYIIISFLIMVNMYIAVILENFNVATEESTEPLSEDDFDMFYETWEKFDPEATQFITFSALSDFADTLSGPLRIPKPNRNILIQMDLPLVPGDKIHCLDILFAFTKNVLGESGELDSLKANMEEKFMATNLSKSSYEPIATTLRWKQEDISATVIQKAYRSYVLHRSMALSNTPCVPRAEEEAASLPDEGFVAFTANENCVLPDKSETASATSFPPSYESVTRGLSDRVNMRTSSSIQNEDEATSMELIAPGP
row,IC50,SMILES
1,5 nM,"COc1cc(Oc2ccc(OC(F)(F)F)cc2Cl)c(C(=O)Nc2ccnc(C(N)=O)c2)c(F)c1C(F)(F)F [Compound 368, 4-[[6-[2-Chloro-4-(Trifluoromethoxy)Phenoxy]-2-Fluoro-4-Methoxy-3-(Trifluoromethyl)Benzoyl]Amino]Pyridine-2-Carboxamide]"
2,1400 nM,[2H]C([2H])([2H])Oc1cc(OC(F)(F)F)ccc1Oc1ccc(C(F)(F)F)cc1C(=O)Nc1ccc(C(N)=O)nc1 [Compound 106]
3,4.9 nM,"COc1c(Oc2cnc(C(F)(F)F)c(OC)c2C(=O)Nc2ccnc(C(N)=O)c2)ccc(OC(F)(F)F)c1F [Compound 333, N-(2-carbamoyl-4-pyridyl)-5-[3-fluoro-2-methoxy-4-(trifluoromethoxy)phenoxy]-3-methoxy-2-(trifluoromethyl)pyridine-4-carboxamide]"
4,290 nM,"COc1c(C(F)(F)F)ccc(Oc2ccc(F)c3c2OCC3)c1C(=O)Nc1ccnc(C(N)=O)c1 [Compound 68, 4-[[6-[(4-fluoro-2,3-dihydrobenzofuran-7-yl)oxy]-2-methoxy-3-(trifluoromethyl)benzoyl]amino]pyridine-2-carboxamide]"
5,560 nM,"CC(C)Oc1ccc(Oc2cccc(C(F)(F)F)c2C(=O)Nc2ccnc(C(N)=O)c2)c(F)c1F [Compound 72, 4-[[2-(2,3-difluoro-4-isopropoxy-phenoxy)-6-(trifluoromethyl)benzoyl]amino]pyridine-2-carboxamide]"
6,190 nM,"[2H]C([2H])([2H])Oc1cc(OC(F)(F)F)ccc1Oc1cc(-c2ccc(C#N)cc2)cc(F)c1C(=O)Nc1ccnc(C(N)=O)c1 [Compound 1012, 4-[[4-(4-cyanophenyl)-2-fluoro-6-[2-(trideuteriomethoxy)-4-(trifluoromethoxy)phenoxy]benzoyl]amino]pyridine-2-carboxamide]"
7,200 nM,"NC(=O)c1cc(NC(=O)c2c(Oc3ccc(Cl)cc3F)ccc(C(F)(F)F)c2F)ccn1 [Compound 51, 4-[[6-(4-chloro-2-fluoro-phenoxy)-2-fluoro-3-(trifluoromethyl)benzoyl]amino]pyridine-2-carboxamide]"
8,> 3000 nM,"NC(=O)c1cc(NC(=O)c2ccc(C(F)(F)F)cc2-c2ccc(OC(F)(F)F)cc2)ccn1 [Compound 254, 4-[[2-[4-(trifluoromethoxy)phenyl]-4-(trifluoromethyl)benzoyl]amino]pyridine-2-carboxamide]"
9,22 nM,"CNC(=O)c1cc(NC(=O)c2c(Oc3ccc(F)c(F)c3OC)cc(OC)c(C(F)(F)F)c2F)ccn1 [Compound 301, 4-[[6-(3,4-Difluoro-2-Methoxy-Phenoxy)-2-Fluoro-4-Methoxy-3-(Trifluoromethyl)Benzoyl]Amino]-N-Methyl-Pyridine-2-Carboxamide]"
10,1000 nM,"COc1cc(OC(F)(F)F)ccc1Oc1ccc(C(F)(F)F)c(OCC2CC2(F)F)c1C(=O)Nc1ccnc(C(N)=O)c1 (stereo not shown) [Compound 86, 4-[[2-[(2,2-difluorocyclopropyl)methoxy]-6-[2-methoxy-4-(trifluoromethoxy)phenoxy]-3-(trifluoromethyl)benzoyl]amino]pyridine-2-carboxamide]"
11,19 nM,"CC(C)Oc1ccc(Oc2ccc(C(F)(F)F)c(F)c2C(=O)Nc2ccnc(C(N)=O)c2)c(F)c1F [Compound 18, 4-[[6-(2,3-difluoro-4-isopropoxy-phenoxy)-2-fluoro-3-(trifluoromethyl)benzoyl]amino]pyridine-2-carboxamide]"
12,2 nM,"COc1cc(OC(F)(F)F)ccc1Oc1ccc(C(F)(F)F)c(SC)c1C(=O)Nc1ccnc(C(N)=O)c1 [Compound 1025, 4-[[6-[2-methoxy-4-(trifluoromethoxy)phenoxy]-2-methylsulfanyl-3-(trifluoromethyl)benzoyl]amino]pyridine-2-carboxamide]"
13,5.9 nM,"COc1c(Oc2cc(F)c(F)c(F)c2C(=O)Nc2ccnc(C(N)=O)c2)ccc(OC(F)(F)F)c1F [Compound 307, 4-[[2,3,4-trifluoro-6-[3-fluoro-2-methoxy-4-(trifluoromethoxy)phenoxy]benzoyl]amino]pyridine-2-carboxamide]"
